In patent publication US20110281839A1, “COMBINATION THERAPY FOR THE TREATMENT OF BACTERIAL INFECTIONS” (priority 2010, published 2011):
“And” between values parts separate entries of the source, which are not always exact repeats. Identical values can stand only once. “Also recorded” adds a separate entry of the source. Counter-ions that a name gives are not always drawn. Like-named read-outs stand apart in the source and are kept apart here.

Key:
[1] = tested on: A. baumannii isolates; experiment: Susceptibility of A. baumannii isolates by broth microdilution (CLSI methodology); type: cell-based; settings: for MIC: Acinetobacter baumannii
Method: Susceptibility of the A. baumannii isolates to each of the agents was determined by broth microdilution using Clinical and Laboratory Standards Institute (CLSI) methodology at a central laboratory. […] The susceptibility of A. baumannii to other drugs was interpreted according to the standard procedures as defiend by CLSI (Clinical and Laboratory Standards Institute Test Procedures MO2-A10, Vol. 29, No. 1; M07-A8, Vol. 29, No. 2 and/or M100-S19, Vol. 29, No. 3; Jan. 2009).

[2] = tested on: A. baumannii; experiment: Clinical and microbiological outcome at test of cure visit in subjects with nosocomial pneumonia, 3 clinical studies of doripenem; type: in vivo, human
Method: Each group received treatment of either doripenem alone or doripenem with concomitant therapy, as noted.
True concomitant therapy was determined by applying the following algorithm: treatment with the second antimicrobial was initiated during Study Days 1-14 and administered on the same study days as doripenem. In addition, the second antimicrobial was given for >1 day of the overlapping period. Concomitant therapy was assessed for the following antimicrobial agents: the fluoroquinolones ciprofloxacin and levofloxacin, colistin and the aminoglycosides amakacin and tobramycin.
Doripenem was administered at either 500 mg Q8H as a 1 hour infusion, 500 mg Q8H as a 4 hour infusion or 1g Q8H as a 4 hour infusion, depending on the specific clinical study, as noted in the Tables below.

[3] = tested on: A. baumannii; settings: MICs as high as 16 μg/mL; doripenem 1 gram over a 4 hour infusion; cited from earlier work
[4] = isolate of each patient, doripenem + amikacin group
[5] = per patient, test of cure visit, doripenem 1 gram or 500 mg every 8 hours, listed as Doripenem Monotherapy, monohydrate
[6] = whole treatment group, test of cure
[7] = A. baumannii isolate of each patient, doripenem monotherapy group, monohydrate
[8] = isolate of each patient, doripenem + amikacin group, monohydrate
[9] = isolate of each patient, doripenem + colistin group, monohydrate
[10] = isolate of each patient, doripenem + fluoroquinolone group
[11] = isolate of each patient, doripenem + tobramycin group, monohydrate
[12] = isolate of each patient, doripenem + tobramycin group
[13] = isolate of each patient, doripenem + colistin group

## NCC[C@H](O)C(=O)N[C@@H]1C[C@H](N)[C@@H](O[C@H]2O[C@H](CN)[C@@H](O)[C@H](O)[C@H]2O)[C@H](O)[C@H]1O[C@H]1O[C@H](CO)[C@@H](O)[C@H](N)[C@H]1O [Amikacin, amikacin]
[1]; [4]
  Amikacin MIC: >64 μg/mL (5×) and 4 μg/mL and 1 μg/mL (2×) and 2 μg/mL
  Amikacin susceptibility: (NS) (Non-susceptible (NS) ≧32 μg/mL); also recorded: (S) (Amikacin: Susceptible (S) ≦16 μg/mL)

## C[C@@H](O)[C@H]1C(=O)N2C(C(=O)O)=C(S[C@@H]3CN[C@H](CNS(N)(=O)=O)C3)[C@H](C)[C@H]12 [Doripenem, doripenem monohydrate]
[2]; nosocomial pneumonia due to doripenem-susceptible A. baumannii
  treatment effect: effective
[2]; [5]
  Clinical Outcome: Cure (7×) and Failure (2×)
  Microbiological Outcome: Eradicated; also recorded: Persisted
[2]; [6]
  positive outcome: 77.8%
  positive outcome (patients with positive outcome / patients in group): 7/9
[3]
  treatment of pneumonia due to A. baumannii: effectively treated
[1]; [7]
  Doripenem MIC: 0.25 μg/mL (2×) and 0.12 μg/mL (2×) and 0.5 μg/mL (2×) and >128 μg/mL and 8 μg/mL and 1 μg/mL
  Doripenem susceptibility: (S) (Susceptible (S) ≦1 μg/mL); also recorded: (NS) (Non-susceptible (NS) >2 μg/mL)
[1]; isolate of each patient, doripenem + fluoroquinolone group, read-out: Doripenem MIC
  MIC: > 32 µg/mL
[1]; [8]
  Doripenem MIC: 64 μg/mL (2×) and 1 μg/mL (2×) and 0.25 μg/mL and 0.12 μg/mL and >32 μg/mL and 16 μg/mL
  Doripenem susceptibility: (NS) (Non-susceptible (NS) >2 μg/mL); also recorded: (S) (Susceptible (S) ≦1 μg/mL)
[1]; [9]
  Doripenem MIC: >32 µg/mL and 32 µg/mL and 1 µg/mL
  Doripenem susceptibility: (NS) (Non-susceptible (NS) >2 μg/mL); also recorded: (S) (Susceptible (S) ≦1 μg/mL)
[1]; [10]
  Doripenem susceptibility: (NS) (Non-susceptible (NS) >2 μg/mL)
[1]; isolate of each patient, doripenem + fluoroquinolone group, monohydrate
  Doripenem MIC: 32 µg/mL and 16 µg/mL and >32 µg/mL
[1]; [11]
  Doripenem MIC: 0.12 μg/mL (3×) and >32 μg/mL and 1 μg/mL and 0.25 μg/mL
  Doripenem susceptibility: (S) (Susceptible (S) ≦1 μg/mL); also recorded: (NS) (Non-susceptible (NS) >2 μg/mL)

## C[C@H]1COc2c(N3CCN(C)CC3)c(F)cc3c(=O)c(C(=O)O)cn1c23 [Levofloxacin, levofloxacin]
[1]; isolate of each patient, doripenem + fluoroquinolone group, read-out: Fluoroquinolone MIC
  MIC: > 4 µg/mL
[1]; [10]
  Fluoroquinolone MIC: >4 µg/mL
  Levofloxacin susceptibility: (NS) (Non-susceptible (NS) ≧4 μg/mL)

## NC[C@H]1O[C@H](O[C@H]2[C@H](O)[C@@H](O[C@H]3O[C@H](CO)[C@@H](O)[C@H](N)[C@H]3O)[C@H](N)C[C@@H]2N)[C@H](N)C[C@@H]1O [Tobramycin, tobranycin sulfate]
[1]; [12]
  Tobramycin MIC: 0.5 μg/mL (2×) and 4 μg/mL and 0.25 μg/mL
  Tobramycin susceptibility: (S) (Tobramycin: Susceptible (S) ≦4 μg/mL)

## colistin
[1]; [13]
  Colistin MIC: 1 µg/mL
  Colistin susceptibility: S (Colistin: Susceptible (S) ≦2 μg/mL)
